Each compound was assayed on human monocytic cell line U937 (assay: Human U937 cellular necroptosis assay). Conditions: U-937; U937 cells stimulated with 25 ng/mL human TNFalpha and 25 μM z-VAD-FMK; 22 hr; viability by Cell Titer-Glo 2.0; read-out: hU937 IC50.
Assay type: cell-based
Procedure: Human U937 Cellular Necroptosis Assay
The human monocytic cell line U937 (CRL-1593.2) may be purchased from ATCC. The cells are routinely maintained in RPMI-1640 Medium (Gibco, Catalog #11875-093) supplemented with 10% heat inactivated fetal bovine serum (Gibco, Catalog #16140-071), 100 units/mL penicillin and 100 μg/mL streptomycin (Gibco, Catalog #15140-122), in a humidified incubator (37° C., 5% CO2). For the assay, cells are resuspended in RPMI-1640 phenol red free Media (Gibco, Catalog #11835-030) supplemented with 10% fetal bovine serum (Sigma, Catalog #F2442), 100 units/mL penicillin and 100 ug/mL streptomycin. Cells are stimulated with 25 ng/mL human TNFalpha (Cell Sciences, Catalog #CSI15659B) and 25 μM z-VAD-FMK (R&D Systems, Catalog #FMK001) followed by seeding 5000 cells per well in a volume of 40 μL to a white, CulturPlate-384 (Perkin Elmer, Catalog #6007680). Stock solutions of the test compounds are prepared in 100% DMSO (Sigma, Catalog #D2650) and serially diluted 1:3 using 100% DMSO. Compounds are additionally diluted 1:40 in assay medium, and 10 μL/well was transferred to the plate. Following the compound addition, the plate is incubated at 37° C. and 5% CO2 for 22 hr. After 22 hr, viability is assessed with the addition of 20 μL of Cell Titer-Glo 2.0 (Promega, Catalog #G9243). The tissue culture plate is shaken on an orbital shaker at 300 RPM for 15 minutes at room temperature in the dark. Luminescence is measured using a PerkinElmer Envision™ plate reader. IC50 values are calculated using a four-parameter logistic curve fit using Genedata Screener software. Compounds disclosed herein are expected to have activity in this assay.

| SMILES | IC50 [nM] |
| --- | --- |
| CN1C(=O)[C@@H](NC(=O)c2ncc(Cl)c(-c3cccc(C#N)c3)n2)COc2cc(F)cnc21 [Example 84, (S)-5-chloro-4-(3-cyanophenyl)-N-(8-fluoro-5-methyl-4-oxo-2,3,4,5-tetrahydropyrido[3,2-b]-[1,4]oxazepin-3-yl)pyrimidine-2-carboxamide] | 33.5 |
| CN1C(=O)[C@@H](NC(=O)c2ncc(Cl)c([C@@H]3COCCO3)n2)COc2cc(Cl)cnc21 [Example 163a, 5-chloro-N—((S)-8-chloro-5-methyl-4-oxo-2,3,4,5-tetrahydropyrido[3,2-b][1,4]oxazepin-3-yl)-4-((R)-1,4-dioxan-2-yl)pyrimidine-2-carboxamide] | 172 |
| Cc1cnc(C(=O)N[C@H]2COc3cc(C#N)ccc3N(C)C2=O)nc1-c1cccc(F)c1 [Example 135, (S)-N-(8-cyano-5-methyl-4-oxo-2,3,4,5-tetrahydrobenzo[b]-[1,4]oxazepin-3-yl)-4-(3-fluorophenyl)-5-methylpyrimidine-2-carboxamide] | 17.6 |
| Cc1cnc(C(=O)N[C@H]2COc3cc(C#N)ccc3N(C)C2=O)nc1-c1ccc(F)cc1F [Example 38, (S)-N-(8-cyano-5-methyl-4-oxo-2,3,4,5-tetrahydro-benzo[b][1,4]oxazepin-3-yl)-4-(2,4-difluorophenyl)-5-methyl-pyrimidine-2-carboxamide] | 18.9 |
| Cc1cc(F)ccc1-c1ccnc(C(=O)N[C@H]2COc3cc(F)cnc3N(C)C2=O)n1 [Example 63, (S)-4-(4-fluoro-2-methylphenyl)-N-(8-fluoro-5-methyl-4-oxo-2,3,4,5-tetrahydropyrido[3,2-b]-[1,4]oxazepin-3-yl)pyrimidine-2-carboxamide] | 117 |
| Cc1cnc(C(=O)Nc2cccc(Cl)c2F)nc1-c1ccccc1 [Example 18, N-(3-chloro-2-fluorophenyl)-5-methyl-4-phenylpyrimidine-2-carboxamide] | 1890 |
| CN1C(=O)[C@@H](NC(=O)c2ncc(Cl)c(-c3ccc(F)cc3F)n2)COc2ccc(-c3cnn(C)c3)cc21 [Example 150, (S)-5-chloro-4-(2,4-difluorophenyl)-N-(5-methyl-7-(1-methyl-1H-pyrazol-4-yl)-4-oxo-2,3,4,5-tetrahydrobenzo[b]-[1,4]oxazepin-3-yl)pyrimidine-2-carboxamide] | 14.2 |
| CN1C(=O)[C@@H](NC(=O)c2ncc(Cl)c(-c3ccc(F)cc3F)n2)COc2cc(CN3CCn4ncnc4C3)ccc21 [Example 154, (S)-5-chloro-4-(2,4-difluorophenyl)-N-(8-((5,6-dihydro-[1,2,4]triazolo[1,5-a]pyrazin-7(8H)-yl)methyl)-5-methyl-4-oxo-2,3,4,5-tetrahydrobenzo[b]-[1,4]oxazepin-3-yl)pyrimidine-2-carboxamide] | 32.1 |
| Cc1ccc(-c2nc(C(=O)N[C@H]3COc4cc(F)cnc4N(C)C3=O)ncc2Cl)cc1F [Example 78, (S)-5-chloro-4-(3-fluoro-4-methylphenyl)-N-(8-fluoro-5-methyl-4-oxo-2,3,4,5-tetrahydropyrido[3,2-b]-[1,4]oxazepin-3-yl)pyrimidine-2-carboxamide] | 8.3 |
| Cc1cnc(C(=O)N[C@H]2COc3cccnc3N(C)C2=O)nc1-c1cccc(F)c1F [Example 59, (S)-4-(2,3-difluorophenyl)-5-methyl-N-(5-methyl-4-oxo-2,3,4,5-tetrahydropyrido[3,2-b]-[1,4]oxazepin-3-yl)pyrimidine-2-carboxamide] | 13.9 |
| O=C(NC1CCc2ccccc2NC1=O)c1nccc(-c2ccccc2)n1 (centres unmarked) [Example 4, N-(2-oxo-2,3,4,5-tetrahydro-1H-benzo[b]azepin-3-yl)-4-phenylpyrimidine-2-carboxamide] | 2160 |
| Cc1cnc(C(=O)N[C@H]2COc3cc(Cl)cnc3N(C)C2=O)nc1-c1ccc(F)cn1 [Example 121, (S)-N-(8-chloro-5-methyl-4-oxo-2,3,4,5-tetrahydro-pyrido[3,2-b][1,4]oxazepin-3-yl)-4-(5-fluoropyridin-2-yl)-5-methylpyrimidine-2-carboxamide] | 30.2 |
| CN1C(=O)[C@@H](NC(=O)c2ncc(Cl)c(-c3ccc(F)c(F)c3)n2)COc2cc(F)cnc21 [Example 75, (S)-5-chloro-4-(3,4-difluorophenyl)-N-(8-fluoro-5-methyl-4-oxo-2,3,4,5-tetrahydropyrido[3,2-b]-[1,4]oxazepin-3-yl)pyrimidine-2-carboxamide] | 11.9 |
| Cc1cnc(C(=O)N[C@H]2CCc3ccccc3NC2=O)nc1-c1cccc(F)c1 [Example 12, (S)-4-(3-fluorophenyl)-5-methyl-N-(2-oxo-2,3,4,5-tetrahydro-1H-benzo[b]azepin-3-yl)pyrimidine-2-carboxamide] | 14.6 |
| Cc1ccc(-c2nc(C(=O)N[C@H]3COc4cc(C#N)ccc4N(C)C3=O)ncc2Cl)cc1F [Example 132, (S)-5-chloro-N-(8-cyano-5-methyl-4-oxo-2,3,4,5-tetrahydrobenzo[b]-[1,4]oxazepin-3-yl)-4-(3-fluoro-4-methylphenyl)pyrimidine-2-carboxamide] | 20.2 |
| CN1C(=O)[C@@H](NC(=O)c2ncc(F)c(-c3ccc(F)cc3)n2)COc2cc(F)cnc21 [Example 66, (S)-5-fluoro-N-(8-fluoro-5-methyl-4-oxo-2,3,4,5-tetrahydropyrido[3,2-b]-[1,4]oxazepin-3-yl)-4-(4-fluorophenyl)pyrimidine-2-carboxamide] | 106 |
| CN1C(=O)[C@@H](NC(=O)c2ncc(Cl)c(-c3ccc(F)cc3F)n2)COc2ccc(OCC(CO)CCl)cc21 (stereo partly drawn) [Example 147, 5-chloro-N-((3S)-7-(3-chloro-2-(hydroxymethyl)propoxy)-5-methyl-4-oxo-2,3,4,5-tetrahydrobenzo[b]-[1,4]oxazepin-3-yl)-4-(2,4-difluorophenyl)pyrimidine-2-carboxamide] | 20.9 |
| O=C(NC1CCc2ccccc2NC1=O)c1nc(-c2ccccc2)c(Cl)cc1Cl (centres unmarked) [Example 8, 3,5-dichloro-N-(2-oxo-2,3,4,5-tetrahydro-1H-benzo[b]azepin-3-yl)-6-phenylpicolinamide] | 354 |
| Cc1cnc(C(=O)N[C@H]2COc3ccc(Oc4cnn(C)c4)cc3N(C)C2=O)nc1-c1ccc(C#N)cc1 [Example 160, (S)-4-(4-cyanophenyl)-5-methyl-N-(5-methyl-7-((1-methyl-1H-pyrazol-4-yl)oxy)-4-oxo-2,3,4,5-tetrahydrobenzo[b]-[1,4]oxazepin-3-yl)pyrimidine-2-carboxamide] | 24 |
| Cc1cnc(C(=O)N[C@H]2COc3cc(Cl)cnc3N(C)C2=O)nc1C1CC(F)(F)CCN1 (stereo partly drawn) [Example 172, N—((S)-8-chloro-5-methyl-4-oxo-2,3,4,5-tetrahydropyrido[3,2-b][1,4]oxazepin-3-yl)-4-(4,4-difluoropiperidin-2-yl)-5-methylpyrimidine-2-carboxamide] | 175 |
| CN1C(=O)[C@@H](NC(=O)c2ncc(Cl)c(-c3ccc(Cl)cc3)n2)COc2cc(C#N)ccc21 [Example 131, (S)-5-chloro-4-(4-chlorophenyl)-N-(8-cyano-5-methyl-4-oxo-2,3,4,5-tetrahydrobenzo[b]-[1,4]oxazepin-3-yl)pyrimidine-2-carboxamide] | 22.1 |
| CN1C(=O)[C@@H](NC(=O)c2ncc(Cl)c(-c3cc(F)ccc3F)n2)COc2cc(F)cnc21 [Example 74, (S)-5-chloro-4-(2,5-difluorophenyl)-N-(8-fluoro-5-methyl-4-oxo-2,3,4,5-tetrahydropyrido[3,2-b]-[1,4]oxazepin-3-yl)pyrimidine-2-carboxamide] | 11 |
| CN1C(=O)[C@@H](NC(=O)c2ncc(Cl)c(-c3cncc(F)c3)n2)COc2cc(Cl)cnc21 [Example 109, (S)-5-chloro-N-(8-chloro-5-methyl-4-oxo-2,3,4,5-tetrahydropyrido[3,2-b]-[1,4]oxazepin-3-yl)-4-(5-fluoropyridin-3-yl)pyrimidine-2-carboxamide] | 59.2 |
| Cc1cnc(C(=O)N[C@H]2COc3cccnc3N(C)C2=O)nc1C12CCC(CC1)CC2 [Example 57, (S)-4-(bicyclo[2.2.2]octan-1-yl)-5-methyl-N-(5-methyl-4-oxo-2,3,4,5-tetrahydro-pyrido[3,2-b][1,4]oxazepin-3-yl)pyrimidine-2-carboxamide] | 90.9 |
| CN1C(=O)[C@@H](NC(=O)c2ncc(Cl)c(-c3cccc(F)c3)n2)COc2cc(F)cnc21 [Example 70, (S)-5-chloro-N-(8-fluoro-5-methyl-4-oxo-2,3,4,5-tetrahydropyrido[3,2-b]-[1,4]oxazepin-3-yl)-4-(3-fluorophenyl)pyrimidine-2-carboxamide] | 9.94 |
| CN1C(=O)[C@@H](NC(=O)c2ncc(Cl)c(-c3cc(F)ccc3F)n2)COc2ccc(Oc3cnn(C)c3)cc21 [Example 161, (S)-5-chloro-4-(2,5-difluorophenyl)-N-(5-methyl-7-((1-methyl-1H-pyrazol-4-yl)oxy)-4-oxo-2,3,4,5-tetrahydrobenzo[b]-[1,4]oxazepin-3-yl)pyrimidine-2-carboxamide] | 9 |

— US12565490B2, “Inhibitors of Receptor Interacting Protein Kinase I for the treatment of disease” (Board of Regents, The University of Texas System, priority 2020, dated 2026)
